# Tests used:
# HCT-116 = assay: Cytotoxicity against human HCT116 cells assessed as inhibition of cell proliferation after 96 hrs; type: functional, cell-based; conditions: HCT-116, 96 h
# HT-29 = assay: Cytotoxicity against human HT-29 cells assessed as inhibition of cell proliferation after 96 hrs; type: functional, cell-based; conditions: HT-29, 96 h
# A549 = assay: Cytotoxicity against human A549 cells assessed as inhibition of cell proliferation after 96 hrs; type: functional, cell-based; conditions: A549, 96 h
# [1] = Metabolic stability in BALB/c mouse hepatic microsomes assessed per mg of microsomal protein at 1 umol/L preincubated for 5 mins by LC-MS/MS method; type: ADME, Liver, Microsome; conditions: 1 µM
# Tubulin = Tubulin (Sus scrofa, UniProt P02554+P02550); assay: Inhibition of tubulin polymerization assessed as reduction in tubulin assembly after 5 mins using pig microtubule protein by spectrophotometry; type: protein assay
smiles,measurement,setting,value
COc1c(Cl)c2c(c(OC)c1OC)-c1ccc(OC)c(=O)cc1[C@@H](NC(=S)N(C)C)CC2,IC50,HCT-116,8.4 nM
same,IC50,HT-29,8.8 nM
same,IC50,A549,10.7 nM
COc1c(Cl)c2c(c(OC)c1OC)-c1ccc(OC)c(=O)cc1[C@@H](NC(=S)Nc1cccnn1)CC2,IC50,HCT-116,13.2 nM
same,IC50,HT-29,6.3 nM
same,IC50,A549,39.6 nM
COc1ccccc1NC(=S)N[C@H]1CCc2c(Cl)c(OC)c(OC)c(OC)c2-c2ccc(OC)c(=O)cc21,IC50,HCT-116,29.4 nM
same,IC50,HT-29,15 nM
same,IC50,A549,77.6 nM
CCS(=O)(=O)N[C@H]1CCc2c(Cl)c(OC)c(OC)c(OC)c2-c2ccc(OC)c(=O)cc21,Intrinsic clearance,[1],5 µL/min/mg
same,IC50,HCT-116,39.9 nM
same,IC50,HT-29,42.6 nM
same,IC50,A549,48.1 nM
COc1c(Cl)c2c(c(OC)c1OC)-c1ccc(OC)c(=O)cc1[C@@H](NC(=S)Nc1nc[nH]n1)CC2,Intrinsic clearance,[1],88 µL/min/mg
same,IC50,HCT-116,0.3 nM
same,IC50,HT-29,0.2 nM
same,IC50,A549,0.5 nM
COc1c(Cl)c2c(c(OC)c1OC)-c1ccc(OC)c(=O)cc1[C@@H](NC(=S)Nc1cccc(C#N)c1)CC2,IC50,HCT-116,25.3 nM
same,IC50,HT-29,6.7 nM
same,IC50,A549,126 nM
CNC(=S)N[C@H]1CCc2c(Cl)c(OC)c(OC)c(OC)c2-c2ccc(OC)c(=O)cc21,IC50,HCT-116,6.3 nM
same,IC50,HT-29,2.8 nM
same,IC50,A549,10.9 nM
COc1cc2c(c(OC)c1OC)-c1ccc(OC)c(=O)cc1[C@@H](NC(C)=O)CC2 [COLCHICINE],Intrinsic clearance,[1],1 µL/min/mg
same,IC50,HCT-116,10.6 nM
same,IC50,HT-29,8.2 nM
COc1c(Cl)c2c(c(OC)c1OC)-c1ccc(OC)c(=O)cc1[C@@H](NC(=S)Nc1cc[nH]n1)CC2,Intrinsic clearance,[1],188 µL/min/mg
same,IC50,HCT-116,0.9 nM
same,IC50,HT-29,0.3 nM
same,IC50,A549,7.8 nM
COc1c(Cl)c2c(c(OC)c1OC)-c1ccc(OC)c(=O)cc1[C@@H](NC(=S)Nc1ccccn1)CC2,IC50,HCT-116,61.7 nM
same,IC50,HT-29,34.6 nM
same,IC50,A549,170 nM
COc1c(Cl)c2c(c(OC)c1OC)-c1ccc(OC)c(=O)cc1[C@@H](NC(=S)Nc1cnccn1)CC2,IC50,HCT-116,33 nM
same,IC50,HT-29,19.4 nM
same,IC50,A549,37.4 nM
COc1c(Cl)c2c(c(OC)c1OC)-c1ccc(OC)c(=O)cc1[C@@H](NC(=S)Nc1cccnc1)CC2,IC50,HCT-116,41.7 nM
same,IC50,HT-29,31.6 nM
same,IC50,A549,186 nM
COc1c(Cl)c2c(c(OC)c1OC)-c1ccc(OC)c(=O)cc1[C@@H](NC(=S)N(C)CCO)CC2,IC50,HCT-116,32.6 nM
same,IC50,HT-29,30.4 nM
same,IC50,A549,44.9 nM
COc1c(Cl)c2c(c(OC)c1OC)-c1ccc(OC)c(=O)cc1[C@@H](NC(=S)Nc1nccs1)CC2,IC50,HCT-116,6.5 nM
same,IC50,HT-29,1.1 nM
same,IC50,A549,10.1 nM
COc1c(Cl)c2c(c(OC)c1OC)-c1ccc(OC)c(=O)cc1[C@@H](NC(=S)Nc1ncn(C)n1)CC2,IC50,HCT-116,8.8 nM
same,IC50,HT-29,6 nM
same,IC50,A549,34.8 nM
COc1c(Cl)c2c(c(OC)c1OC)-c1ccc(OC)c(=O)cc1[C@@H](NC(=S)Nc1ccncc1)CC2,IC50,HCT-116,34.1 nM
same,IC50,HT-29,23.5 nM
same,IC50,A549,247 nM
CCCN(CCC)C(=S)N[C@H]1CCc2c(Cl)c(OC)c(OC)c(OC)c2-c2ccc(OC)c(=O)cc21,IC50,HCT-116,34.4 nM
same,IC50,HT-29,38.2 nM
same,IC50,A549,40.3 nM
COc1c(Cl)c2c(c(OC)c1OC)-c1ccc(OC)c(=O)cc1[C@@H](NS(C)(=O)=O)CC2,IC50,HCT-116,36.9 nM
same,IC50,HT-29,38.6 nM
same,IC50,A549,45.4 nM
COc1c(Cl)c2c(c(OC)c1OC)-c1ccc(OC)c(=O)cc1[C@@H](NC(=S)Nc1n[nH]c(C)n1)CC2,Intrinsic clearance,[1],223 µL/min/mg
same,IC50,HCT-116,0.5 nM
same,IC50,HT-29,0.3 nM
same,IC50,A549,1.7 nM
COc1c(Cl)c2c(c(OC)c1OC)-c1ccc(OC)c(=O)cc1[C@@H](NC(=O)NC(C)C)CC2,IC50,HCT-116,189 nM
same,IC50,HT-29,181 nM
same,IC50,A549,289 nM
COc1c(Cl)c2c(c(OC)c1OC)-c1ccc(OC)c(=O)cc1[C@@H](NC(=S)Nc1ccc(C#N)cc1)CC2,IC50,HCT-116,25 nM
same,IC50,HT-29,6.4 nM
same,IC50,A549,67.8 nM
COc1c(Cl)c2c(c(OC)c1OC)-c1ccc(OC)c(=O)cc1[C@@H](NC(=S)Nc1cccc(N(C)C)c1)CC2,IC50,HCT-116,24.2 nM
same,IC50,HT-29,4.4 nM
same,IC50,A549,38.4 nM
COc1c(Cl)c2c(c(OC)c1OC)-c1ccc(OC)c(=O)cc1[C@@H](NC(=S)Nc1ccccc1C#N)CC2,IC50,HCT-116,2200 nM
same,IC50,HT-29,866 nM
same,IC50,A549,3800 nM
COc1c(OC)c2c(c(C(F)F)c1OC)CC[C@H](NC(C)=O)c1cc(=O)c(OC)ccc1-2,IC50,HCT-116,45.8 nM
same,IC50,HT-29,48.1 nM
same,IC50,A549,55.4 nM
COc1c(Cl)c2c(c(OC)c1OC)-c1ccc(OC)c(=O)cc1[C@@H](NC(N)=S)CC2,IC50,HCT-116,9 nM
same,IC50,HT-29,6.1 nM
same,IC50,A549,45 nM
COc1c(Cl)c2c(c(OC)c1OC)-c1ccc(OC)c(=O)cc1[C@@H](NC(=S)NCCO)CC2,IC50,HCT-116,89.7 nM
same,IC50,HT-29,52.7 nM
same,IC50,A549,251 nM
CCCNC(=S)N[C@H]1CCc2c(Cl)c(OC)c(OC)c(OC)c2-c2ccc(OC)c(=O)cc21,IC50,HCT-116,4.3 nM
same,IC50,HT-29,1.6 nM
same,IC50,A549,9.9 nM
COc1c(Cl)c2c(c(OC)c1OC)-c1ccc(OC)c(=O)cc1[C@@H](NC(C)=O)CC2,Intrinsic clearance,[1],28 µL/min/mg
same,IC50,HCT-116,8.1 nM
same,IC50,HT-29,7.9 nM
same,IC50,A549,9.9 nM
COc1c(Cl)c2c(c(OC)c1OC)-c1ccc(OC)c(=O)cc1[C@@H](NC(=S)Nc1cncnc1)CC2,IC50,HCT-116,177 nM
same,IC50,HT-29,154 nM
same,IC50,A549,941 nM
CCCCCCNC(=S)N[C@H]1CCc2c(Cl)c(OC)c(OC)c(OC)c2-c2ccc(OC)c(=O)cc21,IC50,HCT-116,171 nM
same,IC50,HT-29,176 nM
same,IC50,A549,212 nM
COc1c(Cl)c2c(c(OC)c1OC)-c1ccc(OC)c(=O)cc1[C@@H](NC(=S)Nc1nc(C)cs1)CC2,IC50,HCT-116,2.4 nM
same,IC50,HT-29,0.4 nM
same,IC50,A549,7.6 nM
COc1c(Cl)c2c(c(OC)c1OC)-c1ccc(OC)c(=O)cc1[C@@H](NC(=O)N1CCCCC1)CC2,Intrinsic clearance,[1],43 µL/min/mg
same,IC50,HCT-116,42.4 nM
same,IC50,HT-29,42.6 nM
same,IC50,A549,26.6 nM
CCNC(=O)N[C@H]1CCc2c(Cl)c(OC)c(OC)c(OC)c2-c2ccc(OC)c(=O)cc21,IC50,HCT-116,134 nM
same,IC50,HT-29,81.8 nM
same,IC50,A549,247 nM
COc1c(Cl)c2c(c(OC)c1OC)-c1ccc(OC)c(=O)cc1[C@@H](NC(=S)Nc1cc(C)on1)CC2,IC50,HCT-116,7.3 nM
same,IC50,HT-29,5.6 nM
same,IC50,A549,42.5 nM
COc1c(Cl)c2c(c(OC)c1OC)-c1ccc(OC)c(=O)cc1[C@@H](NC(=S)Nc1ncnn1C)CC2,IC50,HCT-116,33.9 nM
same,IC50,HT-29,18 nM
same,IC50,A549,40.3 nM
COc1c(Cl)c2c(c(OC)c1OC)-c1ccc(OC)c(=O)cc1[C@@H](NC(=O)N(C)C)CC2,IC50,HCT-116,50.4 nM
same,IC50,HT-29,53.2 nM
same,IC50,A549,192 nM
COc1c(Cl)c2c(c(OC)c1OC)-c1ccc(OC)c(=O)cc1[C@@H](NC(=S)N1CCCC1)CC2,IC50,HCT-116,7.2 nM
same,IC50,HT-29,7.5 nM
same,IC50,A549,12.2 nM
COc1c(Cl)c2c(c(OC)c1OC)-c1ccc(OC)c(=O)cc1[C@@H](NC(=S)Nc1cc(C)[nH]n1)CC2,IC50,Tubulin,1110 nM
same,Intrinsic clearance,[1],4 µL/min/mg
same,IC50,HCT-116,0.3 nM
same,IC50,HT-29,0.3 nM
same,IC50,A549,2 nM
COc1c(OC)c2c(c(C(F)(F)F)c1OC)CC[C@H](NC(C)=O)c1cc(=O)c(OC)ccc1-2,IC50,HCT-116,37.9 nM
same,IC50,HT-29,35 nM
same,IC50,A549,55.2 nM
COc1c(Cl)c2c(c(OC)c1OC)-c1ccc(OC)c(=O)cc1[C@@H](NC(=S)Nc1ccccc1)CC2,IC50,HCT-116,1.2 nM
same,IC50,HT-29,0.4 nM
same,IC50,A549,24.4 nM
CCCCNC(=S)N[C@H]1CCc2c(Cl)c(OC)c(OC)c(OC)c2-c2ccc(OC)c(=O)cc21,IC50,HCT-116,1.8 nM
same,IC50,HT-29,1 nM
same,IC50,A549,7.4 nM
COc1cccc(NC(=S)N[C@H]2CCc3c(Cl)c(OC)c(OC)c(OC)c3-c3ccc(OC)c(=O)cc32)c1,IC50,HCT-116,1.4 nM
same,IC50,HT-29,0.5 nM
same,IC50,A549,23.3 nM
COc1c(Cl)c2c(c(OC)c1OC)-c1ccc(OC)c(=O)cc1[C@@H](NC(=S)N1CCC1)CC2,IC50,HCT-116,8.4 nM
same,IC50,HT-29,5.8 nM
same,IC50,A549,33.3 nM
COc1c(Cl)c2c(c(OC)c1OC)-c1ccc(OC)c(=O)cc1[C@@H](NS(=O)(=O)CC(C)C)CC2,IC50,HCT-116,33.2 nM
same,IC50,HT-29,36.4 nM
same,IC50,A549,40.8 nM
COc1c(Cl)c2c(c(OC)c1OC)-c1ccc(OC)c(=O)cc1[C@@H](NS(=O)(=O)C(C)C)CC2,IC50,HCT-116,40.7 nM
same,IC50,HT-29,42.2 nM
same,IC50,A549,44.9 nM
COc1ccc(NC(=S)N[C@H]2CCc3c(Cl)c(OC)c(OC)c(OC)c3-c3ccc(OC)c(=O)cc32)cc1,IC50,HCT-116,1.4 nM
same,IC50,HT-29,0.3 nM
same,IC50,A549,8 nM
COc1c(Cl)c2c(c(OC)c1OC)-c1ccc(OC)c(=O)cc1[C@@H](NC(=S)Nc1ccn(C)n1)CC2,Intrinsic clearance,[1],37 µL/min/mg
same,IC50,HCT-116,1.3 nM
same,IC50,HT-29,0.7 nM
same,IC50,A549,5.8 nM
COc1c(Cl)c2c(c(OC)c1OC)-c1ccc(OC)c(=O)cc1[C@@H](NC(=S)N1CCCCC1)CC2,IC50,HCT-116,6.9 nM
same,IC50,HT-29,6.1 nM
same,IC50,A549,9.6 nM
CCN(CC)C(=O)N[C@H]1CCc2c(Cl)c(OC)c(OC)c(OC)c2-c2ccc(OC)c(=O)cc21,Intrinsic clearance,[1],21 µL/min/mg
same,IC50,HCT-116,44.3 nM
same,IC50,HT-29,43.9 nM
same,IC50,A549,48.3 nM
COc1c(Cl)c2c(c(OC)c1OC)-c1ccc(OC)c(=O)cc1[C@@H](NS(=O)(=O)c1ccccc1)CC2,IC50,HCT-116,25.8 nM
same,IC50,HT-29,8.7 nM
same,IC50,A549,36.8 nM
COc1c(Cl)c2c(c(OC)c1OC)-c1ccc(OC)c(=O)cc1[C@@H](NC(=O)Nc1ccccc1)CC2,IC50,HCT-116,36 nM
same,IC50,HT-29,35.2 nM
same,IC50,A549,48.1 nM
COc1c(CF)c2c(c(OC)c1OC)-c1ccc(OC)c(=O)cc1[C@@H](NC(C)=O)CC2,IC50,HCT-116,4750 nM
same,IC50,HT-29,2620 nM
same,IC50,A549,8790 nM
